Patent publication US20250179077A1, “QUINAZOLINE COMPOUNDS AND USES THEREOF AS INHIBITORS OF MUTANT KRAS PROTEINS” (AMGEN INC., priority 2022, published 2025)

Key:
[1] = tested on: Phosphorylation of ERK1/2 in AsPC-1 cells; assay: Phospho-ERK1/2 MSD Assay; assay type: cell-based; conditions: Homo sapiens, ASPC1, 2 h, read-out: 2 h p-ERK (AsPC-1 cells), IC50, AsPC-1 cells, 2 h compound treatment
Procedure, shortened: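 Phospho-ERK1/2 was quantified by MSD whole-cell lysate immunoassay in RIPA lysates made with protease/phosphatase inhibitors. A 4-parameter logistic model gave IC50.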

[2] = molecular target: His-tagged KRAS G12D protein (Homo sapiens, UniProt P01116, G12D); assay: KRAS G12D TR-FRET Assay; assay type: binding
Chain of His-tagged KRAS G12D protein (P01116 1-188 isoform P01116-2 G12D): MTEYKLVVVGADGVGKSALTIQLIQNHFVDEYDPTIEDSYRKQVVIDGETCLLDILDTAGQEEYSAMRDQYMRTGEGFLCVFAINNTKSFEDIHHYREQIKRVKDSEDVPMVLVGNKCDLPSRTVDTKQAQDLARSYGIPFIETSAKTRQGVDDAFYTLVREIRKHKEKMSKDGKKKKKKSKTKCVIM
Procedure, shortened: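 His-KRAS G12D (20 nM) was preincubated with titrated compound for 30 min at RT in HEPES pH 7.4 buffer with MgCl2, 10 μM GDP. Biotin-KRPep-2d (20 nM) was then added for 1 h, followed by Eu-anti-His/streptavidin-d2 for 1 h. The 665/615 nm TR-FRET ratio was fitted 4-parameter to give IC50.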

[3] = molecular target: GDP-bound KRAS protein (aa 1-169), containing both G12D and C118A amino acid substitutions (Homo sapiens, UniProt P01116, C118A/G12D); assay: KRAS G12D Coupled Nucleotide Exchange Assay; assay type: biochemical
Chain of GDP-bound KRAS protein (aa 1-169), containing both G12D and C118A amino acid substitutions (P01116 1-169 isoform P01116-2 G12D/C118A): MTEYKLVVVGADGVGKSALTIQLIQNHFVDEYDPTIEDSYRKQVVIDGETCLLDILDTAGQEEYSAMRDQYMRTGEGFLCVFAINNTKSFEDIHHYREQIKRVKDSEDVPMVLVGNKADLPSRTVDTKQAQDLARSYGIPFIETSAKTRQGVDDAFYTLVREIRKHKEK
Procedure: KRAS G12D Coupled Nucleotide Exchange Assay
Following compound pre-incubation, purified SOS protein (aa 564-1049) and GTP (Roche 10106399001) were added to the assay wells and incubated for an additional 30 min. […] The assay plates were then read on a PerkinElmer EnVision Multilabel Reader, using AlphaScreen® technology, and data were analyzed using a 4-parameter logistic model to calculate IC50 values.

| Compound | IC50 [1] [nM] | IC50 [2] [nM] | IC50 [3] [nM] |
| --- | --- | --- | --- |
| CCc1cccc2cc(O)cc(-c3c(F)cc4c(N5CCC[C@]6(CCO6)C5)nc(OC[C@@]56CCCN5C[C@H](F)C6)nc4c3F)c12 [Example 77, 4-(6,8-Difluoro-2-(((2R,7aS)-2-fluorotetrahydro-1H-pyrrolizin-7a(5H)-yl)methoxy)-4-((S)-1-oxa-6-azaspiro[3.5]nonan-6-yl)quinazolin-7-yl)-5-ethylnaphthalen-2-ol] | 29 | 6 | 4 |
| Oc1cc(-c2c(F)cc3c(N4CCC[C@]5(CCO5)C4)nc(OC[C@@]45CCCN4C[C@H](F)C5)nc3c2F)c2c(Cl)c(F)ccc2c1 [Example 78, 5-Chloro-4-(6,8-difluoro-2-(((2R,7aS)-2-fluorotetrahydro-1H-pyrrolizin-7a(5H)-yl)methoxy)-4-((S)-1-oxa-6-azaspiro[3.5]nonan-6-yl)quinazolin-7-yl)-6-fluoronaphthalen-2-ol] | 16 | 5 | 3 |
| Oc1cc(-c2c(F)cc3c(N4CCC[C@]5(CCO5)C4)nc(OC[C@@]45CCCN4C[C@H](F)C5)nc3c2F)c2c(F)c(F)ccc2c1 [Example 79, 4-(6,8-Difluoro-2-(((2R,7aS)-2-fluorotetrahydro-1H-pyrrolizin-7a(5H)-yl)methoxy)-4-((S)-1-oxa-6-azaspiro[3.5]nonan-6-yl)quinazolin-7-yl)-5,6-difluoronaphthalen-2-ol] | 33 | 9 | 5 |
| O=C1NCC2(CCCN(c3nc(OC[C@@]45CCCN4C[C@H](F)C5)nc4c(F)c(-c5cc(O)cc(Cl)c5C5CC5)ccc34)C2)O1 (stereo partly drawn) [Example 83, 7-(7-(3-Chloro-2-cyclopropyl-5-hydroxyphenyl)-8-fluoro-2-(((2R,7a5)-2-fluorotetrahydro-1H-pyrrolizin-7a(5H)-yl)methoxy)quinazolin-4-yl)-1-oxa-3,7-diazaspiro[4.5]decan-2-one] | 58 | 10 | 5 |
| O=C1NC[C@]2(CCCN(c3nc(OC[C@@]45CCCN4C[C@H](F)C5)nc4c(F)c(-c5cc(O)cc(Cl)c5C5CC5)ccc34)C2)O1 [Example 84, (S)-7-(7-(3-Chloro-2-cyclopropyl-5-hydroxyphenyl)-8-fluoro-2-(((2R,7aS)-2-fluorotetrahydro-1H-pyrrolizin-7a(5H)-yl)methoxy)quinazolin-4-yl)-1-oxa-3,7-diazaspiro[4.5]decan-2-one] | 72 | 5 | 2 |
| CCc1c(F)ccc2cccc(-c3ccc4c(N5CCCC6(CNC(=O)O6)C5)nc(OC[C@@]56CCCN5C[C@H](F)C6)nc4c3F)c12 (stereo partly drawn) [Example 85, 7-(7-(8-Ethyl-7-fluoronaphthalen-1-yl)-8-fluoro-2-(((2R,7aS)-2-fluorotetrahydro-1H-pyrrolizin-7a(5H)-yl)methoxy)quinazolin-4-yl)-1-oxa-3,7-diazaspiro[4.5]decan-2-one] | 85 | 7 | 7 |
| CCc1c(F)ccc2cc(O)cc(-c3ccc4c(N5CCC[C@]6(C5)C[C@@H](O)C6)nc(OC[C@@]56CCCN5C[C@H](F)C6)nc4c3F)c12 [Example 87, (2S,4s)-6-(7-(8-Ethyl-7-fluoro-3-hydroxynaphthalen-1-yl)-6,8-difluoro-2-(((2R,7a.S)-2-fluorotetrahydro-1H-pyrrolizin-7a(5H)-yl)methoxy)quinazolin-4-yl)-6-azaspiro[3.5]nonan-2-ol] | 55 | 5 | 3 |
| CCc1c(F)ccc2cc(O)cc(-c3c(F)cc4c(N5CCCC6(CCC(=O)O6)C5)nc(OC[C@@]56CCCN5C[C@H](F)C6)nc4c3F)c12 (stereo partly drawn) [Example 92, 7-(7-(8-Ethyl-7-fluoro-3-hydroxynaphthalen-1-yl)-6,8-difluoro-2-(((2R,7aS)-2-fluorotetrahydro-1H-pyrrolizin-7a(5H)-yl)methoxy)quinazolin-4-yl)-1-oxa-7-azaspiro[4.5]decan-2-one] | 28 | 7 | 5 |
| CCC1CCCc2cc(O)cc(-c3ccc4c(N5CCC[C@@](C)(O)C5)nc(OC[C@@]56CCCN5C[C@H](F)C6)nc4c3F)c21 (stereo partly drawn) [Example 95, (3R)-1-(7-(8-Ethyl-3-hydroxy-5,6,7,8-tetrahydronaphthalen-1-yl)-8-fluoro-2-(((2R,7aS)-2-fluorotetrahydro-1H-pyrrolizin-7a(5H)-yl)methoxy)quinazolin-4-yl)-3-methylpiperidin-3-ol] | 180 | 12 | 9 |
| CC1CCCc2cc(O)cc(-c3ccc4c(N5CCC[C@@](C)(O)C5)nc(OC[C@@]56CCCN5C[C@H](F)C6)nc4c3F)c21 (stereo partly drawn) [Example 96, (3R)-1-(8-Fluoro-2-(((2R,7aS)-2-fluorotetrahydro-1H-pyrrolizin-7a(5H)-yl)methoxy)-7-(3-hydroxy-8-methyl-5,6,7,8-tetrahydronaphthalen-1-yl)quinazolin-4-yl)-3-methylpiperidin-3-ol] | 87 | 10 | 6 |
| C/C=C\c1c(Cl)cc2[nH]ncc2c1-c1c(F)cc2c(N3CCOC[C@@](C)(O)C3)nc(OC[C@@]34CCCN3C[C@H](F)C4)nc2c1F [Example 103, (6S)-4-(7-(6-Chloro-5-((Z)-prop-1-en-1-yl)-1H-indazol-4-yl)-6,8-difluoro-2-(((2R,7aS)-2-fluorotetrahydro-1H-pyrrolizin-7a(5H)-yl)methoxy)quinazolin-4-yl)-6-methyl-1,4-oxazepan-6-ol] | 27 | 7 | 5 |
| C/C=C\c1c(Cl)cc2[nH]ncc2c1-c1ccc2c(N3CCOC[C@@](C)(O)C3)nc(OC[C@@]34CCCN3C[C@H](F)C4)nc2c1F [Example 105, (6S)-4-(7-(6-Chloro-5-((Z)-prop-1-en-1-yl)-1H-indazol-4-yl)-8-fluoro-2-(((2R,7aS)-2-fluorotetrahydro-1H-pyrrolizin-7a(5H)-yl)methoxy)quinazolin-4-yl)-6-methyl-1,4-oxazepan-6-ol] | 32 | 3 | 3 |
| C/C=C\c1c(C)cc2[nH]ncc2c1-c1ccc2c(N3CCOC[C@@](C)(O)C3)nc(OC[C@@]34CCCN3C[C@H](F)C4)nc2c1F [Example 106, (6S)-4-(8-Fluoro-2-(((2R,7aS)-2-fluorotetrahydro-1H-pyrrolizin-7a(5H)-yl)methoxy)-7-(6-methyl-5-((Z)-prop-1-en-1-yl)-1H-indazol-4-yl)quinazolin-4-yl)-6-methyl-1,4-oxazepan-6-ol] | 87 | 7 | 4 |
| C/C=C\c1c(Cl)cc2[nH]ncc2c1-c1ccc2c(N3CCC[C@@](C)(O)C3)nc(OC[C@@]34CCCN3C[C@H](F)C4)nc2c1F [Example 108, (3R)-1-(7-(6-Chloro-5-((Z)-prop-1-en-1-yl)-1H-indazol-4-yl)-8-fluoro-2-(((2R,7aS)-2-fluorotetrahydro-1H-pyrrolizin-7a(5H)-yl)methoxy)quinazolin-4-yl)-3-methylpiperidin-3-ol] | 115 | 4 | 3 |
| C/C=C\c1c(Cl)cc2[nH]ncc2c1-c1ccc2c(N3CCC[C@@](C)(O)C3)nc(OCC3(CN(C)C)CC3)nc2c1F [Example 115, (3R)-1-(7-(6-Chloro-5-((Z)-prop-1-en-1-yl)-1H-indazol-4-yl)-2-((1-((dimethylamino)methyl)cyclopropyl)methoxy)-8-fluoroquinazolin-4-yl)-3-methylpiperidin-3-ol] | 247 | 8 | 9 |
